Data from patent US6242433A, “Geranylgeranyl-derivatives, process for the preparation thereof and related pharmaceutical compositions” (Laboratori Baldacci SpA, priority 1995, dated 2001).
Counter-ions that a name gives are not always drawn. Like-named read-outs stand apart in the source and are kept apart here.

What was measured:
MIA PaCa-2 cell line [1] = assay: apoptosis in MIA PaCa-2 cells (ELISA of fragmented DNA); assay type: cell-based, human; settings: 1-75 μM; vs non-treated cells
From the text: Apoptosis consists in enzymatic digestion of nuclear DNA by endogenous nucleases within the cell and it occurs when cell replication is impaired by agents that block cell cycle progression towards mitosis.

p21rap1 = assay: inhibition of p21rap1 geranylgeranylation in a malignant tumoral human cell line (electrophoresis, PVDF membrane, specific polyclonal antibody); assay type: cell-based; settings: 75 μM; 24 hours
Method: The ability of the compounds according to the present invention of inhibiting the protein geranylgeranylation has been evaluated by means of an in vitro test on a malignant tumoral human cell line which has been treated with the following geranylgeranyl-derivatives:
The cells have been treated with increasing amounts of the geranylgeranyl derivatives BAL9504, BAL9505, BAL9603, BAL9605, BAL9608, BAL9609, BAL9610, BAL9611, BAL9613, BAL9503, BAL9614, (1-75 μM) and, after 24 hours, they have been collected and solubilized in a lysis solution containing non-ionic detergents. The soluble fraction has been collected by centrifugation and proteins separated by means of acrylamide gel electrophoresis and subsequently transferred onto a polyvinylidene fluoride (PVDF) membrane.
The presence of the geranylgeranylated protein p21rap1 has been then evidenced by means of a specific polyclonal antibody followed by chemiluminescent detection by means of a secondary antibody linked to alkaline phosphatase as previously described (M. A. Mansfield, FASEB J., S, A1428, 1994).

MIA PaCa-2 cell line [2] = assay: citotoxicity on human pancreas cancer MIA PaCa-2 cell line; assay type: cell-based
From the text: The relevance of such an effect on cell proliferation has been then evaluated by studying the citotoxicity of the above-mentioned compounds on the of human pancreas cancer MIA PaCa-2 cell line following the method described by R. Danesi et. al., Mol. Pharmacol., 47, 1106, 1995.
(§1) The citotoxicity of the geranylgeranyl-derivatives BAL9504 and BAL9503 has also been evaluated on the normal diploid fibroblast cells MRC-5 from human lung following the method described by R. Danesi et. al., Mol. Pharmacol., 47, 1106, 1995. Table 2 reports the concentration of the compounds under study that produces 50% growth inhibition (IC50) in MRC-5 and MIA PaCa-2 cell lines together with the sensibility index, that is the ratio between the IC50 in MRC-5 and MIA PaCa-2 cells.

[3] = test system: normal diploid fibroblast cells MRC-5; assay: citotoxicity on normal diploid fibroblast cells MRC-5 from human lung; assay type: cell-based; settings: Table 2; for IC50: Homo sapiens, MRC5, MRC-5, read-out: IC50 (50% growth inhibition); for Sensibility Index (ratio between the IC50 in MRC-5 and MIA PaCa-2 cells): IC50 MRC-5 / IC50 MIA PaCa-2
From the text: as §1

[4] = Table 1, read-out: IC50 (the concentration that produces 50% reduction in cell growth)
[5] = Table 2, read-out: IC50 (50% growth inhibition)

Structure (SMILES) | induction of death for apoptosis (MIA PaCa-2 cell line [1]) | amount of the non-isoprenylated protein relative to the isoprenylated one (p21rap1) (p21rap1) | IC50 (MIA PaCa-2 cell line [2]; [4]) [µM] | IC50 (MIA PaCa-2 cell line [2]; [5]) [µM] | IC50 [3] [µM] | Sensibility Index (ratio between the IC50 in MRC-5 and MIA PaCa-2 cells) [3]
CC(C)=CCC/C(C)=C/CC/C(C)=C/CC/C(C)=C/COC(=O)NS(N)(=O)=O [BAL9503, (E,E,E)-O-(3,7,11,15-tetramethyl-2,6,10,14-hexadecatetraenyl)-N-(aminosulfonyl)urethane] | induce death for apoptosis | equal to that of the isoprenylated one | 10.5 | 10.5 | 256 | 24.4
CC(C)=CCC/C(C)=C/CC/C(C)=C/CC/C(C)=C/CONC(=O)CP(=O)(O)O [BAL9504, dipotassium salt of (E,E,E)-{2-oxo-2-[[(3,7,11,15-tetramethyl-2,6,10,14-hexadecatetraenyl)oxy]amino]ethyl}phosphonic acid] | induce death for apoptosis | equal to that of the isoprenylated one | 2.1 | 2.1 | 54.6 | 26
CCOP(=O)(O)CC(=O)NOC/C=C(\C)CC/C=C(\C)CC/C=C(\C)CCC=C(C)C [BAL9505, monosodium salt of the monoethyl-ester of (E,E,E)-{2-oxo-2[[(3,7,11,15-tetramethyl-2,6,10,14-hexadecatetraenyl)oxy]amino]ethyl}phosphonic acid] | – | equal to that of the isoprenylated one | > 30 | – | – | –
CC(C)=CCC/C(C)=C/CC/C(C)=C/CC/C(C)=C/CONC(=O)CCP(=O)(O)O [BAL9603, dipotassium salt of (E,E,E)-{3-oxo-3-[[(3,7,11,15-tetramethyl-2,6,10,14-hexadecatetraenyl)oxy]amino]propyl}phosphonic acid] | – | – | > 30 | – | – | –
CC(C)=CCC/C(C)=C/CC/C(C)=C/CC/C(C)=C/CNC(=O)CP(=O)(O)O [BAL9605, dipotassium salt of (E,E,E)-[2-oxo-2-[(3,7,11,15-tetramethyl-2,6,10,14-hexadecatetraenyl)amino]ethyl]phosphonic acid] | induce death for apoptosis | – | 7.7 | – | – | –
CC(C)=CCC/C(C)=C/CC/C(C)=C/CC/C(C)=C/CNC(=O)CCP(=O)(O)O [BAL9608, dipotassium salt of (E,E,E)-[3-oxo-3-[(3,7,11,15-tetramethyl-2,6,10,14-hexadecatetraenyl)amino]propyl]phosphonic acid] | – | – | 16.7 | – | – | –
CC(C)=CCC/C(C)=C/CC/C(C)=C/CC/C(C)=C/CCP(=O)(O)CP(=O)(O)O [BAL9609, tripotassium salt of (E,E,E)-[[(4,8,12,16-tetramethyl-3,7,11,15-heptadecatetraenyl)hydroxyphosphoryl]methyl]phosphonic acid] | induce death for apoptosis | – | 3.5 | – | – | –
CC(C)=CCC/C(C)=C/CC/C(C)=C/CC/C(C)=C/CCP(=O)(O)C(C)(C)P(=O)(O)O [BAL9610, tripotassium salt of (E,E,E)-1-methyl-1[(4,8,12,16-tetramethyl-3,7,11,15-heptadecatetraenyl)hydroxyphosphoryl]ethylphosphonic acid] | – | – | > 30 | – | – | –
CCC(CC)(P(=O)(O)O)P(=O)(O)CC/C=C(\C)CC/C=C(\C)CC/C=C(\C)CCC=C(C)C [BAL9611, tripotassium salt of (E,E,E)-1-ethyl-1-[(4,8,12,16-tetramethyl-3,7,11,15-heptadecatetraenyl)hydroxyphosphoryl]propylphosphonic acid] | induce death for apoptosis | – | 1.5 | – | – | –
CC(C)=CCC/C(C)=C/CC/C(C)=C/CC/C(C)=C/CCP(=O)(O)O [BAL9613, dipotassium salt of (E,E,E)-(4,8,12,16-tetramethyl-3,7,11,15-heptadecatetraenyl)phosphonic acid] | – | – | > 30 | – | – | –
CC(C)=CCC/C(C)=C/CC/C(C)=C/CC/C(C)=C/CONS(N)(=O)=O [BAL9614, (E,E,E)-1-[(aminosulfonyl)aminoxy]-3,7,11,15-tetramethyl-2,6,10,14-hexadecatetraene] | – | – | 11.9 | – | – | –
